Row | Structure (SMILES) | melting point [°C]
1 | Oc1cc(Cl)nnc1Oc1cccc2c1C1CC1C2 (stereo not shown) [Compound No. 515, 3-(1,1a,6,6a-Tetrahydrocyclopropa[a]inden-2-yloxy)-6-chloro-4-pyridazinol] | 245 to 247
2 | O=C(O)C1(c2ccccc2Oc2nnc(Cl)cc2O)CCC1 [Compound No. 288, 1-{2-[(6-Chloro-4-hydroxy-3-pyridazinyl)oxy]phenyl}cyclobutanecarboxylic acid] | 173 to 175
3 | Cc1cccc(Oc2nnc(Cl)cc2O)c1[N+](=O)[O-] [Compound No. 498, 6-Chloro-3-(3-methyl-2-nitrophenoxy)-4-pyridazinol] | 191 to 200
4 | Cc1cccc(C2CC2)c1Oc1nnc(Cl)cc1OC(=O)c1cc(Cl)cc(Cl)c1 [Compound No. 3226, 6-Chloro-3-(2-cyclopropyl-6-methylphenoxy)-4-pyridazinyl 3,5-dichlorobenzoate] | 168 to 174
5 | Oc1cc(Cl)nnc1Oc1cccc(I)c1 [Compound No. 412, 6-Chloro-3-(3-iodophenoxy)-4-pyridazinol] | 202 to 203
6 | N#C/C=C/c1ccccc1Oc1nnc(Cl)cc1O [Compound No. 306, (2E)-3-{2-[(6-Chloro-4-hydroxy-3-pyridazinyl)oxy]phenyl}acrylonitrile] | 190 to 192
7 | COc1cccc(Br)c1Oc1nnc(Cl)cc1O [Compound No. 778, 3-(2-Bromo-6-methoxyphenoxy)-6-chloro-4-pyridazinol] | 220 to 221
8 | CCCCc1ccccc1Oc1nnc(Cl)cc1O [Compound No. 133, 3-(2-Butylphenoxy)-6-chloro-4-pyridazinol] | 149.5 to 150
9 | Oc1cc(Cl)nnc1Oc1cccc(C2CC2)c1 [Compound No. 417, 6-Chloro-3-(3-cyclopropylphenoxy)-4-pyridazinol] | 179 to 181
10 | Cc1cc(C)c(C2CC2)c(Oc2nnc(Cl)cc2O)c1 [Compound No. 1023, 6-Chloro-3-(2-cyclopropyl-3,5-dimethylphenoxy)-4-pyridazinol] | 200 to 203
11 | Cc1cccc(C2CC2)c1Oc1nnc(Cl)cc1OC(=O)C(C)C [Compound No. 1172, 6-Chloro-3-(2-cyclopropyl-6-methylphenoxy)-4-pyridazinyl 2-methylpropanoate] | 38 to 39
12 | Oc1cc(Cl)nnc1Oc1cccc(C(F)(F)F)c1F [Compound No. 441, 6-Chloro-3-[2-fluoro-3-(trifluoromethyl)phenoxy]-4-pyridazinol] | 185 to 189
13 | Cc1ccc(S(=O)(=O)Oc2cc(Cl)nnc2Oc2ccccc2C(C)(C)C)cc1 [Compound No. 2224, 3-(2-tert-Butylphenoxy)-6-chloro-4-pyridazinyl 4-methylbenzenesulfonate] | 98 to 99
14 | C/C=C/c1cccc(/C=C/C)c1Oc1nnc(Cl)cc1O [Compound No. 979, 6-Chloro-3-{2,6-di[(1E)-1-propenyl]phenoxy}-4-pyridazinol] | 163 to 164
15 | Cc1ccccc1Oc1nnc(Cl)cc1OS(=O)(=O)c1ccccc1 [Compound No. 2147, 6-Chloro-3-(2-methylphenoxy)-4-pyridazinyl benzenesulfonate] | 91.5 to 92
16 | COc1cccc(F)c1Oc1nnc(Cl)cc1O [Compound No. 732, 6-Chloro-3-(2-fluoro-6-methoxyphenoxy)-4-pyridazinol] | 190 to 194
17 | Cc1ccc(Oc2nnc(Cl)cc2O)cc1 [Compound No. 430, 6-Chloro-3-(4-methylphenoxy)-4-pyridazinol] | 261 to 263
18 | Cc1ccc(S(=O)(=O)Oc2cc(Cl)nnc2Oc2cc(C)ccc2C(C)C)cc1 [Compound No. 2249, 6-Chloro-3-(2-isopropyl-5-methylphenoxy)-4-pyridazinyl 4-methylbenzenesulfonate] | 90 to 92
19 | Cc1cc(C)c(C)c(Oc2nnc(Cl)cc2O)c1C [Compound No. 1125, 6-Chloro-3-(2,3,5,6-tetramethylphenoxy)-4-pyridazinol] | 278 to 283
20 | Oc1cc(Cl)nnc1Oc1ccccc1OC(F)F [Compound No. 390, 6-Chloro-3-[2-(difluoromethoxy)phenoxy]-4-pyridazinol] | 210 to 212
21 | Oc1cc(Cl)nnc1Oc1cccc(C(F)(F)F)c1 [Compound No. 418, 6-Chloro-3-[3-(trifluoromethyl)phenoxy]-4-pyridazinol] | 213 to 216
22 | CC(C)(C)c1ccccc1Oc1nnc(Cl)cc1OS(=O)(=O)c1ccc(Cl)cc1 [Compound No. 2200, 3-(2-tert-Butylphenoxy)-6-chloro-4-pyridazinyl 4-chlorobenzenesulfonate] | 83.5 to 84.5
23 | CCCCCc1ccccc1Oc1nnc(Cl)cc1O [Compound No. 137, 6-Chloro-3-(2-pentylphenoxy)-4-pyridazinol] | 151.5 to 152.5
24 | C=CCc1cccc(CC=C)c1Oc1nnc(Cl)cc1O [Compound No. 982, 6-Chloro-3-(2,6-diallylphenoxy)-4-pyridazinol] | 131 to 135
25 | CCC(C)c1ccccc1Oc1nnc(Cl)cc1OS(=O)(=O)c1ccc(C)cc1 (stereo not shown) [Compound No. 2223, 3-(2-s-Butylphenoxy)-6-chloro-4-pyridazinyl 4-methylbenzenesulfonate] | 65 to 66

Row | Structure (SMILES) | melting point [°C]
26 | O=Cc1cccc(Oc2nnc(Cl)cc2O)c1 [Compound No. 421, 3-[(6-Chloro-4-hydroxy-3-pyridazinyl)oxy]benzaldehyde] | 188 to 192
27 | CC1(C)CC1c1ccccc1Oc1nnc(Cl)cc1O (stereo not shown) [Compound No. 267, 6-Chloro-3-[2-(2,2-dimethylcyclopropyl)phenoxy]-4-pyridazinol] | 187 to 188
28 | Cc1cc(C)c([N+](=O)[O-])c(Oc2nnc(Cl)cc2O)c1C [Compound No. 2608, 6-Chloro-3-(2,3,5-trimethyl-6-nitrophenoxy)-4-pyridazinol] | 172 to 174
29 | CCCS(=O)(=O)Oc1cc(Cl)nnc1Oc1ccccc1C [Compound No. 2038, 6-Chloro-3-(2-methylphenoxy)-4-pyridazinyl 1-propanesulfonate] | 72 to 73
30 | Cc1ccc(C(C)C)c(Oc2nnc(Cl)cc2O)c1 [Compound No. 640, 6-Chloro-3-(2-isopropyl-5-methylphenoxy)-4-pyridazinol] | 193 to 195
31 | Oc1cc(Cl)nnc1Oc1ccccc1C1(c2ccccc2)CC1 [Compound No. 184, 6-Chloro-3-[2-(1-phenylcyclopropyl)phenoxy]-4-pyridazinol] | 172 to 173
32 | Cc1cccc(C2CC2)c1Oc1nnc(Cl)cc1C(=O)[O-].[K+] | 187 to 189
33 | Oc1cc(Cl)nnc1Oc1ccccc1C1CCC1 [Compound No. 284, 6-Chloro-3-(2-cyclobutylphenoxy)-4-pyridazinol] | 188 to 189
34 | Cc1cccc(C2CC2)c1Oc1nnc(Cl)cc1OC(=O)c1cccn1C [Compound No. 3282, 6-Chloro-3-(2-cyclopropyl-6-methylphenoxy)-4-pyridazinyl 1-methyl-1H-pyrrole-2-carboxylate] | 143 to 144
35 | Cc1ccc(C2CC2)c(Oc2nnc(Cl)cc2O)c1 [Compound No. 662, 6-Chloro-3-(2-cyclopropyl-5-methylphenoxy)-4-pyridazinol] | 150 to 159
36 | CC(C)Oc1ccccc1Oc1nnc(Cl)cc1O [Compound No. 387, 6-Chloro-3-(2-isopropoxyphenoxy)-4-pyridazinol] | 178 to 179
37 | Cc1cc(O)c(Oc2ccccc2C(C)C)nn1 [Compound No. 2418, 3-(2-Isopropylphenoxy)-6-methyl-4-pyridazinol] | 259 to 260
38 | Cc1cccc(C2CC2)c1Oc1nnc(Cl)cc1OC(=O)c1cc(Cl)ccc1Cl [Compound No. 3100, 6-Chloro-3-(2-cyclopropyl-6-methylphenoxy)-4-pyridazinyl 2,5-dichlorobenzoate] | 128 to 130
39 | CC(C)Sc1ccccc1Oc1nnc(Cl)cc1O [Compound No. 403, 6-Chloro-3-[2-(isopropylsulfanyl)phenoxy]-4-pyridazinol] | 176 to 177
40 | CN(C)S(=O)(=O)n1ccc(-c2ccccc2Oc2nnc(Cl)cc2O)n1 [Compound No. 368, 3-{2-[(6-Chloro-4-hydroxy-3-pyridazinyl)oxy]phenyl}N,N-dimethyl-1H-pyrazole-1-sulfonamide] | 210 to 212
41 | Cc1ccccc1Oc1nnc(C2CC2)cc1O [Compound No. 2423, 6-Cyclopropyl-3-(2-methylphenoxy)-4-pyridazinol] | 214 to 215
42 | Oc1cc(Cl)nnc1Oc1ccccc1Br [Compound No. 126, 3-(2-Bromophenoxy)-6-chloro-4-pyridazinol] | 201 to 203
43 | Cc1cc(C)c(Br)c(Oc2nnc(Cl)cc2O)c1C [Compound No. 1124, 3-(2-Bromo-3,5,6-trimethylphenoxy)-6-chloro-4-pyridazinol] | 280 to 290
44 | CC=Cc1ccc(Cl)cc1Oc1nnc(Cl)cc1O [Compound No. 680, 6-Chloro-3-[5-chloro-2-(1-propenyl)phenoxy]-4-pyridazinol] | 221 to 224
45 | Oc1cc(Cl)nnc1Oc1ccc(OCc2ccccc2)cc1 [Compound No. 2548, 3-[4-(Benzyloxy)phenoxy]-6-chloro-4-pyridazinol] | 170 to 180
46 | Cc1cc(C)c(C)c(Oc2nnc(Cl)cc2O)c1 [Compound No. 1016, 6-Chloro-3-(2,3,5-trimethylphenoxy)-4-pyridazinol] | 223 to 224
47 | COc1ccc(C#N)cc1Oc1nnc(Cl)cc1O [Compound No. 707, 3-[(6-Chloro-4-hydroxy-3-pyridazinyl)oxy]-4-methoxybenzonitrile] | 187 to 192
48 | CC(C)c1cccc([N+](=O)[O-])c1Oc1nnc(Cl)cc1O [Compound No. 911, 6-Chloro-3-(2-isopropyl-6-nitrophenoxy)-4-pyridazinol] | 205 to 209
49 | Oc1ccccc1Oc1nnc(Cl)cc1O [Compound No. 384, 6-Chloro-3-(2-hydroxyphenoxy)-4-pyridazinol] | 216 to 219

— patent publication US7964531B2, “3-phenoxy-4-pyridazinol derivatives and herbicidal composition containing the same” (Mitsui Chemicals Agro, Inc., priority 2001, dated 2011)
